Earlier results as cited in patent US20250295646A1, “METHODS OF USE OF T-TYPE CALCIUM CHANNEL MODULATORS” (Praxis Precision Medicines, Inc., priority 2022, published 2025).

Conditions: WO 2020/072773, cited from earlier work

Compound: CC(C)c1ccc(CC(=O)N[C@H](C)c2ccc(OCC(F)(F)F)cn2)cc1 [CX-8998]
- discontinuation due to intolerability of adverse events (28-day essential tremor study): 17%
- discontinuation rate (28-day essential tremor study): 23%
- tolerability of doses of 20 and 24 mg: less well tolerated
- single doses generally well tolerated (non-titrated): up to 16 mg
